From ChEMBL document CHEMBL4402545, “Subtype Selective γ-Aminobutyric Acid Type A Receptor (GABAAR) Modulators Acting at the Benzodiazepine Binding Site: An Update” (J Med Chem, 2020)
pKi: −log10 of the molar value.

Assays:
[1] = target: T1, Gamma-aminobutyric acid receptor subunit alpha-1 (Homo sapiens) (UniProt P14867); assay: Positive allosteric modulation of GABAA alpha1 (unknown origin) relative to control
T1 sequence (whole entry): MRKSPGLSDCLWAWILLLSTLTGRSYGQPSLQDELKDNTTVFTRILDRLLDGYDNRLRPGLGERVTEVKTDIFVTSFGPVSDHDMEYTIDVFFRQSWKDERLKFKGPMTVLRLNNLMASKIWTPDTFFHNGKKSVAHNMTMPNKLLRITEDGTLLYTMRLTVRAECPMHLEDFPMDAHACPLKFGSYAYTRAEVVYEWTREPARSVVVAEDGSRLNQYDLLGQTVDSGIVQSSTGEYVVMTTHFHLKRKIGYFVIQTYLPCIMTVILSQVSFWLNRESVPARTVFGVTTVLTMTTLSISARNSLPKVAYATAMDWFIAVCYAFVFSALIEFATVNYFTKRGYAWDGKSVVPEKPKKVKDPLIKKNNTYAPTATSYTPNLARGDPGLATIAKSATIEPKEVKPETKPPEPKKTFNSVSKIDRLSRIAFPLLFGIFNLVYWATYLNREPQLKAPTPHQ

Rattus norvegicus [2] = assay: In vivo receptor occupancy at GABAA receptor in po dosed Sprague-Dawley rat assessed as spinal cord concentration causing 50% reduction in [3H]-flumazenil receptor labeling after 1 hr by scintillation counting method; assay type: functional
[3] = target: T2, Gamma-aminobutyric acid receptor subunit alpha-5 (Homo sapiens) (UniProt P31644); assay: Binding affinity to GABA-A alpha5 (unknown origin) assessed as increase in induced current relative to control
T2 sequence (whole entry): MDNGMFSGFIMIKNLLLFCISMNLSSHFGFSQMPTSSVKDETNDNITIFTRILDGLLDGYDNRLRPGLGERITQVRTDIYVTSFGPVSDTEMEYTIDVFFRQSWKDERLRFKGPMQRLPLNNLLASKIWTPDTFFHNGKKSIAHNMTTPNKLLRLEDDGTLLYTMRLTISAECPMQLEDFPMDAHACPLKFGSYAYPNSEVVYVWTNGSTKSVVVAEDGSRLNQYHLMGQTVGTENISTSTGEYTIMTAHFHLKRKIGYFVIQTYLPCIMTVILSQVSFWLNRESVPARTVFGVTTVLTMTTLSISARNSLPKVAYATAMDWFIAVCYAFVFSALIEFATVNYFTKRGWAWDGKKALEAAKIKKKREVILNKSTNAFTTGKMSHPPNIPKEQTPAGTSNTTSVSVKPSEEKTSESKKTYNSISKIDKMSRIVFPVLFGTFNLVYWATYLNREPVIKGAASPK

[4] = Half life in rat at 1 mg/kg, po; assay type: ADME, organism-based; details: in vivo
Homo sapiens [5] = assay: In vivo receptor occupancy GABAA receptor in human assessed as whole brain concentration causing reduction in [11C]flumazenil receptor labeling at 10 mg after […] by PET method relative to control; assay type: functional
[6] = target: T3, Gamma-aminobutyric acid receptor subunit alpha-2 (Homo sapiens) (UniProt P47869); assay: Positive allosteric modulation of GABAA alpha2 (unknown origin) relative to control
T3 sequence (whole entry): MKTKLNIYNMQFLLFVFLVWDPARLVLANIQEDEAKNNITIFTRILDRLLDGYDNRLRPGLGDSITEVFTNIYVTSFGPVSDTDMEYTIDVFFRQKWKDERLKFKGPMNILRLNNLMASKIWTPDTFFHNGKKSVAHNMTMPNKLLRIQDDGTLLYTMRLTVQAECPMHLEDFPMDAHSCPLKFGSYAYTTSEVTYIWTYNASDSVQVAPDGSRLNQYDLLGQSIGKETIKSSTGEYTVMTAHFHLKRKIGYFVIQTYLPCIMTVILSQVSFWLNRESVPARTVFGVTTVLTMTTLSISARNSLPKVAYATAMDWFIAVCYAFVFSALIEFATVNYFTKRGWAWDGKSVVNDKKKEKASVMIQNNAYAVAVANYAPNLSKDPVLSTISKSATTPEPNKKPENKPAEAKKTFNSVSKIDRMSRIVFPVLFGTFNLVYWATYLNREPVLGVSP

[7] = Intrinsic clearance in human liver microsomes; assay type: ADME, Microsome; details: read-out: CLH
Rattus norvegicus [8] = assay: In vivo receptor occupancy at GABAA receptor in po dosed Sprague-Dawley rat assessed as forebrain concentration causing 50% reduction in [3H]-flumazenil receptor labeling after 1 hr by scintillation counting method; assay type: functional
[9] = target: T3, Gamma-aminobutyric acid receptor subunit alpha-2 (Homo sapiens); assay: Binding affinity to GABA-A alpha2 (unknown origin) assessed as increase in induced current relative to control
[10] = target: T1, Gamma-aminobutyric acid receptor subunit alpha-1 (Homo sapiens); assay: Binding affinity to GABA-A alpha1 (unknown origin) assessed as increase in induced current relative to control
[11] = Half life in human at 0.04 to 100 mg, po; assay type: ADME; details: in vivo
[12] = target: T4, Gamma-aminobutyric acid receptor subunit alpha-3 (Homo sapiens) (UniProt P34903); assay: Binding affinity to GABA-A alpha3 (unknown origin) assessed as increase in induced current relative to control
T4 sequence (whole entry): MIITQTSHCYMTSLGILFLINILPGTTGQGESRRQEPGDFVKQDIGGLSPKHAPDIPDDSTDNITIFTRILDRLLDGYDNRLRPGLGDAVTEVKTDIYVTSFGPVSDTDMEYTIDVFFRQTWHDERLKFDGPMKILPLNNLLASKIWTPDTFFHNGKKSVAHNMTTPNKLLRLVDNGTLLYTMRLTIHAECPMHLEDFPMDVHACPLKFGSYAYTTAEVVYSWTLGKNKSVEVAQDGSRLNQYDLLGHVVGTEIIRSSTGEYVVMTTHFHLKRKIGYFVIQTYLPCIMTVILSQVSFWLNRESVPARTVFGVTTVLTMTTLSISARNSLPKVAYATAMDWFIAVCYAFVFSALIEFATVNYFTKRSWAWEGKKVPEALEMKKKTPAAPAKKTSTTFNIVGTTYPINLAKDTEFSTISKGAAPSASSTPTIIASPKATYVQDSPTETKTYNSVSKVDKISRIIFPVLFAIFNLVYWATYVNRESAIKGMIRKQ

[13] = Displacement of [3H]-flumazenil from human GABAA alpha2beta3gamma2 expressed in HEK293 cell membranes measured after 2 hrs by liquid scintillation counting method
Rattus norvegicus [14] = assay: In vivo receptor occupancy at GABAA receptor in po dosed Sprague-Dawley rat assessed as cerebellum concentration causing 50% reduction in [3H]-flumazenil receptor labeling after 1 hr by scintillation counting method; assay type: functional
Homo sapiens [15] = assay: In vivo receptor occupancy GABAA receptor in human assessed as whole brain concentration causing reduction in [11C]flumazenil receptor labeling at 65 mg after […] by PET method relative to control; assay type: functional
[16] = target: T5, GABA-A receptor; alpha-5/beta-3/gamma-2 (Homo sapiens, UniProt P18507+P28472+P31644); assay: Displacement of [3H]-flumazenil from human GABAA alpha5beta3gamma2 expressed in Ltk cells; assay type: cell-based
T5 sequence (P18507 whole entry): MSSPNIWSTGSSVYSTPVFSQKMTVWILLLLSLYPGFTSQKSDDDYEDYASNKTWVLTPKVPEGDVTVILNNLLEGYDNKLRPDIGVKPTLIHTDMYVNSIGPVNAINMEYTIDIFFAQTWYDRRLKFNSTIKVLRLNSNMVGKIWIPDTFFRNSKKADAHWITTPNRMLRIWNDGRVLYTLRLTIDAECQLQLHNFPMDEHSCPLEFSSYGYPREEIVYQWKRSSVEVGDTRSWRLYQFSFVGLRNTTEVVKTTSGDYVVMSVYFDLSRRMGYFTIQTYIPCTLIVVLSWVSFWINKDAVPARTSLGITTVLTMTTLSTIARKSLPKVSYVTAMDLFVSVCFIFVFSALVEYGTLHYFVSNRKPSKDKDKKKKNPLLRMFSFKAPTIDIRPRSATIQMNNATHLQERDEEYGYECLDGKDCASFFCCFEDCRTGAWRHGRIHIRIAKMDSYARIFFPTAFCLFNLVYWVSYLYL
T5 sequence (P28472 whole entry): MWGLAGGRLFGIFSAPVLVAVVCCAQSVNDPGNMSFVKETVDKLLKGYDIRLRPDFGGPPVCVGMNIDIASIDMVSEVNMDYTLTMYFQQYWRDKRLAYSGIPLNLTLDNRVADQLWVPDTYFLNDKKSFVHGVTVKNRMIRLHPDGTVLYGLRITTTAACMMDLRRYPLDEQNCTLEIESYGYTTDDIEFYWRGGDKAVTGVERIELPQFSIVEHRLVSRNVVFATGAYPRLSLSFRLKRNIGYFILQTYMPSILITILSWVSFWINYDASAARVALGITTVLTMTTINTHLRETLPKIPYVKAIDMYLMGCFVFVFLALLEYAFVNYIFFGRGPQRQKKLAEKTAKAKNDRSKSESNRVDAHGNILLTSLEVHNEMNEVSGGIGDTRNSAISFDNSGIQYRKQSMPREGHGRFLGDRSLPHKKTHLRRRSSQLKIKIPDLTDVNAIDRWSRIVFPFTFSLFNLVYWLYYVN
T5 sequence (P31644 whole entry): T2 sequence (whole entry)

[17] = target: T6, GABA-A receptor; alpha-1/beta-3/gamma-2 (Homo sapiens, UniProt P14867+P18507+P28472); assay: Displacement of [3H]-flumazenil from human GABAA alpha1beta3gamma2 expressed in Ltk cells; assay type: cell-based
T6 sequence (P14867 whole entry): T1 sequence (whole entry)
T6 sequence (P18507 whole entry): T5 sequence (P18507 whole entry)
T6 sequence (P28472 whole entry): T5 sequence (P28472 whole entry)

Homo sapiens [18] = species: Homo sapiens; assay: Positive allosteric modulation of recombinant human GABAA alpha2beta3gamma2 expressed in Ltk cells assessed as […] current response by whole cell patch clamp method relative to chlordiazepoxide; assay type: cell-based
[19] = target: T7, GABA-A receptor; alpha-3/beta-3/gamma-2 (Homo sapiens, UniProt P18507+P28472+P34903); assay: Displacement of [3H]-flumazenil from human GABAA alpha3beta3gamma2 expressed in Ltk cells; assay type: cell-based
T7 sequence (P18507 whole entry): T5 sequence (P18507 whole entry)
T7 sequence (P28472 whole entry): T5 sequence (P28472 whole entry)
T7 sequence (P34903 whole entry): T4 sequence (whole entry)

[20] = target: GABA-A receptor; alpha-3/beta-3/gamma-2 (Homo sapiens) (UniProt P18507+P28472+P34903); assay: Positive allosteric modulation of recombinant human GABAA alpha3beta3gamma2 expressed in Ltk cells assessed as […] current response by whole cell patch clamp method relative to chlordiazepoxide; assay type: cell-based
[21] = Displacement of [3H]-flumazenil from human GABAA alpha2beta3gamma2 expressed in Ltk cells; assay type: cell-based
[22] = target: GABA-A receptor; alpha-5/beta-3/gamma-2 (Homo sapiens) (UniProt P18507+P28472+P31644); assay: Positive allosteric modulation of recombinant human GABAA alpha5beta3gamma2 expressed in Ltk cells assessed as […] current response by whole cell patch clamp method relative to chlordiazepoxide; assay type: cell-based
[23] = target: GABA-A receptor; alpha-1/beta-3/gamma-2 (Homo sapiens) (UniProt P14867+P18507+P28472); assay: Positive allosteric modulation of recombinant human GABAA alpha1beta3gamma2 expressed in Ltk cells assessed as […] current response by whole cell patch clamp method relative to chlordiazepoxide; assay type: cell-based
Rattus norvegicus [24] = assay: In vivo receptor occupancy at GABAA receptor in po dosed Sprague-Dawley rat assessed as brain concentration causing 50% reduction in [3H]-flumazenil receptor labeling by scintillation counting method; assay type: functional
Rattus norvegicus [25] = assay: In vivo receptor occupancy at GABAA receptor in po dosed rat assessed as brain concentration causing 50% reduction in [3H]-flumazenil receptor labeling after 18 hrs by scintillation counting method; assay type: functional
Rattus norvegicus [26] = assay: In vivo receptor occupancy at GABAA receptor in po dosed rat assessed as plasma concentration causing 50% reduction in [3H]-flumazenil receptor labeling by scintillation counting method; assay type: functional
Homo sapiens [27] = assay: In vivo receptor occupancy at GABAA receptor in human assessed as plasma concentration causing reduction in [11C]-flumazenil receptor labeling at 9 ng/ml by PET method relative to control; assay type: functional

## CCn1cnc2c(-c3ccc(F)c(-c4ccc(S(=O)(=O)CC)cc4OC)c3)cnnc21 [DARIGABAT]
[1]
  Activity: < 20%
Rattus norvegicus [2]
  Occ50: 0.3 to 1 mg/kg
[3]
  fold change (FC): 0.7
[4]
  half-life: 5.5 h
Homo sapiens [5]
  Occ: 69%
[6]
  Activity: > 50%
[7]
  microsomal CLint: < 20 µL/min/mg
Rattus norvegicus [8]
  Occ50: 0.3 to 1 mg/kg
[9]
  fold change (FC): 0.35
[10]
  fold change (FC): 0.11
[11]
  half-life: 6 to 8.9 h
[12]
  fold change (FC): 0.49
[13]
  pKi: 8.53
Rattus norvegicus [14]
  Occ50: 0.3 to 1 mg/kg
Homo sapiens [15]
  Occ: 89%

## Cn1ncnc1COc1nn2c(-c3c(F)cccc3F)nnc2cc1C1CCC1
[16]
  pKi: 9.64
[17]
  pKi: 9.66
Homo sapiens [18]
  fold change (FC): 0.23
[19]
  pKi: 9.68
[20]
  fold change (FC): 0.45
[21]
  pKi: 9.40
[22]
  fold change (FC): 0.18
[23]
  fold change (FC): 0.18
Rattus norvegicus [24]
  Occ50: 2.2 mg/kg

## Cn1ncnc1COc1nn2c(-c3cc(F)ccc3F)nnc2cc1C(C)(C)C
[3]
  fold change (FC): 0.39
[16]
  pKi: 8.65
[17]
  pKi: 9.10
[19]
  pKi: 9.17
[9]
  fold change (FC): 0.43
[10]
  fold change (FC): 0.02
[12]
  fold change (FC): 0.43

## CCn1ncnc1COc1nn2c(-c3ccccc3F)nnc2cc1C(C)(C)C [MK-0777]
Rattus norvegicus [25]
  Occ50: 0.42 mg/kg
Rattus norvegicus [26]
  Occ50: 25 ng/mL
Homo sapiens [27]
  Occ: 50%
